Source: US20220339143A1, “TAK-925 FOR USE IN TREATING NARCOLEPSY” (Takeda Pharmaceutical Company Limited, priority 2019, published 2022)
Like-named read-outs stand apart in the source and are kept apart here.

Assay: Single dose PK in healthy subjects (Cohorts 1, 2, S1 and S2), plasma
Format: in vivo, human
Conditions: human, plasma, intravenous
Description: This study investigates (i) the safety and tolerability of Compound A (methyl (2R,3S)-3-((methylsulfonyl)amino)-2-(((cis-4-phenylcyclohexyl)oxy)methyl)piperidine-1-carboxylate) when a single dose given as a 9 hour continuous IV infusion is administered to healthy adults, healthy elderly subjects and patients with narcolepsy type 1 (NT1); (ii) the pharmacokinetics of Compound A when a single dose given as a 9 hour continuous IV infusion is administered to healthy adults, healthy elderly subjects and patients with narcolepsy type 1; and (iii) the pharmacodynamics (PD) effects of Compound A, primarily by evaluation of the sleep latency on MWT when a single dose given as a 9 hour continuous IV infusion is administered to patients with narcolepsy type 1.
Pharmacokinetics: Concentrations of Compound A in plasma, and CSF, and pharmacokinetics parameters.
On average, the time to reach the plateau appeared to be approximately 3 to 4 hours after the start of infusion. […] After switching off the IV infusion, Compound A plasma concentrations declined rapidly and in a biphasic manner with a mean terminal disposition phase t1/2z ranging approximately from 3.4 to 5.1 hours across all doses. […] Table 5 provides a summary of plasma concentrations of Compound A after a single IV infusion in healthy subjects. Table 6 provides a summary of pharmacokinetic parameters of Compound A after a single IV infusion in healthy subjects.

[1] = 112 mg, read-out: Plasma concentration, Median
[2] = 112 mg, read-out: Plasma concentration, Minimum
[3] = 112 mg, read-out: Plasma concentration, Q1
[4] = 112 mg, read-out: Plasma concentration, Q3
[5] = 112 mg, read-out: Plasma concentration, Maximum
[6] = 112 mg, read-out: Plasma concentration, Mean
[7] = 134.4 mg, read-out: Plasma concentration, Maximum
[8] = 134.4 mg, read-out: Plasma concentration, Mean
[9] = 134.4 mg, read-out: Plasma concentration, Median
[10] = 134.4 mg, read-out: Plasma concentration, Minimum
[11] = 134.4 mg, read-out: Plasma concentration, Q1
[12] = 134.4 mg, read-out: Plasma concentration, Q3

`COC(=O)N1CCC[C@H](NS(C)(=O)=O)[C@@H]1CO[C@H]1CC[C@@H](c2ccccc2)CC1` [Compound A, methyl (2R,3S)-3-((methylsulfonyl)amino)-2-(((cis-4-phenylcyclohexyl)oxy)methyl)piperidine-1-carboxylate] gave a concentration at 1.5 h [1] of 197 ng/mL, a concentration at 1.5 h [2] of 141 ng/mL and a concentration at 1.5 h [3] of 164 ng/mL. The concentration at 1.5 h [4] was 213 ng/mL, the concentration at 2 h [5] was 223 ng/mL and the concentration at 2 h [6] was 200 ng/mL. For the same compound, the concentration at 2 h [1] was 207 ng/mL, the concentration at 2 h [2] was 150 ng/mL and the concentration at 2 h [3] was 195 ng/mL. It also gave a concentration at 2 h [4] of 220 ng/mL, a concentration at 3 h [5] of 276 ng/mL and a concentration at 3 h [6] of 222 ng/mL. It also gave a concentration at 3 h [1] of 216 ng/mL, a concentration at 3 h [2] of 171 ng/mL and a concentration at 3 h [3] of 209 ng/mL. It also gave a concentration at 3 h [4] of 248 ng/mL, a concentration at 4 h [5] of 290 ng/mL and a concentration at 4 h [6] of 224 ng/mL. It also gave a concentration at 4 h [1] of 216 ng/mL, a concentration at 4 h [2] of 154 ng/mL and a concentration at 4 h [3] of 215 ng/mL. It also gave a concentration at 4 h [4] of 252 ng/mL, a concentration at 6 h [5] of 206 ng/mL and a concentration at 6 h [6] of 189 ng/mL. The concentration at 6 h [1] was 192 ng/mL, the concentration at 6 h [2] was 154 ng/mL and the concentration at 6 h [3] was 186 ng/mL. It also gave a concentration at 6 h [4] of 205 ng/mL, a concentration at 8 h [5] of 221 ng/mL and a concentration at 8 h [6] of 194 ng/mL. The concentration at 8 h [1] was 195 ng/mL, the concentration at 8 h [2] was 162 ng/mL and the concentration at 8 h [3] was 176 ng/mL. It also gave a concentration at 8 h [4] of 216 ng/mL, a concentration at 9 h [5] of 247 ng/mL and a concentration at 9 h [6] of 216 ng/mL. The concentration at 9 h [1] was 221 ng/mL, the concentration at 9 h [2] was 169 ng/mL and the concentration at 9 h [3] was 192 ng/mL. The concentration at 9 h [4] was 245 ng/mL, the concentration at 0.5 h [7] was 201 ng/mL and the concentration at 0.5 h [8] was 162 ng/mL. The concentration at 0.5 h [9] was 152 ng/mL, the concentration at 0.5 h [10] was 147 ng/mL and the concentration at 0.5 h [11] was 148 ng/mL. It also gave a concentration at 0.5 h [12] of 169 ng/mL, a concentration at 1 h [7] of 273 ng/mL and a concentration at 1 h [8] of 204 ng/mL. The concentration at 1 h [9] was 187 ng/mL, the concentration at 1 h [10] was 181 ng/mL and the concentration at 1 h [11] was 181 ng/mL. It also gave a concentration at 1 h [12] of 216 ng/mL, a concentration at 1.5 h [7] of 289 ng/mL and a concentration at 1.5 h [8] of 228 ng/mL. For the same compound, the concentration at 1.5 h [9] was 221 ng/mL, the concentration at 1.5 h [10] was 191 ng/mL and the concentration at 1.5 h [11] was 197 ng/mL. For the same compound, the concentration at 1.5 h [12] was 250 ng/mL, the concentration at 2 h [7] was 335 ng/mL and the concentration at 2 h [8] was 248 ng/mL. For the same compound, the concentration at 2 h [9] was 244 ng/mL, the concentration at 2 h [10] was 192 ng/mL and the concentration at 2 h [11] was 199 ng/mL. It also gave a concentration at 2 h [12] of 276 ng/mL, a concentration at 3 h [7] of 388 ng/mL and a concentration at 3 h [8] of 288 ng/mL. The concentration at 3 h [9] was 278 ng/mL, the concentration at 3 h [10] was 217 ng/mL and the concentration at 3 h [11] was 260 ng/mL. It also gave a concentration at 3 h [12] of 305 ng/mL, a concentration at 4 h [7] of 355 ng/mL and a concentration at 4 h [8] of 294 ng/mL. The concentration at 4 h [9] was 308 ng/mL, the concentration at 4 h [10] was 214 ng/mL and the concentration at 4 h [11] was 256 ng/mL. The concentration at 4 h [12] was 324 ng/mL, the concentration at 6 h [7] was 302 ng/mL and the concentration at 6 h [8] was 248 ng/mL. For the same compound, the concentration at 6 h [9] was 260 ng/mL, the concentration at 6 h [10] was 164 ng/mL and the concentration at 6 h [11] was 206 ng/mL. The concentration at 6 h [12] was 295 ng/mL, the concentration at 8 h [7] was 313 ng/mL and the concentration at 8 h [8] was 262 ng/mL. It also gave a concentration at 8 h [9] of 262 ng/mL, a concentration at 8 h [10] of 199 ng/mL and a concentration at 8 h [11] of 242 ng/mL. The concentration at 8 h [12] was 291 ng/mL, the concentration at 9 h [7] was 330 ng/mL and the concentration at 9 h [8] was 292 ng/mL. For the same compound, the concentration at 9 h [9] was 300 ng/mL, the concentration at 9 h [10] was 241 ng/mL and the concentration at 9 h [11] was 268 ng/mL. For the same compound, the concentration at 9 h [12] was 311 ng/mL, the concentration at 0.5 h (180 mg, read-out: Plasma concentration, Maximum) was 224 ng/mL and the concentration at 0.5 h (180 mg, read-out: Plasma concentration, Mean) was 180 ng/mL. It also gave a concentration at 0.5 hr (180 mg, read-out: Plasma concentration, Median) of 170 ng/mL, a concentration at 0.5 hr (180 mg, read-out: Plasma concentration, Minimum) of 161 ng/mL and a concentration at 0.5 hr (180 mg, read-out: Plasma concentration, Q1) of 163 ng/mL. It also gave a concentration at 0.5 hr (180 mg, read-out: Plasma concentration, Q3) of 194 ng/mL.
